Reference: PMC6934184, “Selective DNA-PKcs inhibition extends the therapeutic index of localized radiotherapy and chemotherapy” (The Journal of Clinical Investigation, 2019)

Biological target: T1, GRK1 (Homo sapiens, UniProt Q15835)
T1 construct: purchased Thermo Fisher Scientific (Life Technologies) SelectScreen
Test: SelectScreen LanthaScreen
Format: binding
Settings: read-out: % displacement
In short: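 SelectScreen broad panel; activity (Z'LYTE, Adapta) plus binding formats. ATP: Km app for CSF1R Z'LYTE; 10 for CAMK1 Adapta. Readout = % per kinase.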

T1 sequence (Q15835 whole entry): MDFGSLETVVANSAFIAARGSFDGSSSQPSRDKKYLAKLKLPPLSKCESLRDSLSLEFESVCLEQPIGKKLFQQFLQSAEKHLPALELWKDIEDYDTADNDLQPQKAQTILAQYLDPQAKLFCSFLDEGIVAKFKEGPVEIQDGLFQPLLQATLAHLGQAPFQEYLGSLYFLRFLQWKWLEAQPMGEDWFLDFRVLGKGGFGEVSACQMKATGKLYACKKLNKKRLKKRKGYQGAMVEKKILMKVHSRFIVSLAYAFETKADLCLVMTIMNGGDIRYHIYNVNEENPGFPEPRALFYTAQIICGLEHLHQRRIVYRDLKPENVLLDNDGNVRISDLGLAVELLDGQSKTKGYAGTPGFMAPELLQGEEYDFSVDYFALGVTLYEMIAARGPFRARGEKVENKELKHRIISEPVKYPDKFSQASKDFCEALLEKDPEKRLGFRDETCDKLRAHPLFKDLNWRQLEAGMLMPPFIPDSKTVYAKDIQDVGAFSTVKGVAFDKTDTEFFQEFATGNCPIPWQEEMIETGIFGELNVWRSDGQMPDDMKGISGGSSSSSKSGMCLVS

CN(C(=O)CN1CCOCC1)c1ccc2sc3c(-c4cccc5c(=O)cc(N6CC7CCC(C6)O7)oc45)cccc3c2c1 [NU5455]
inhibition at 1 µM: 1.3%
